Measured values taken from publication PMC9540667, “Novel insights on [1,2]oxazolo[5,4‐e]isoindoles on multidrug resistant acute myeloid leukemia cell line” (Drug Development Research, 2022).
Where two headings read alike, the source gives them in different places.

Legend:
MCF‐7 cells = assay: Cell growth assay (MTS), MCF-7 breast cancer cells; assay type: cell-based; details: the maximum concentration used in the MTS assay is reported
Description: (§1) HL‐60 cells were obtained from ATCC® (CCL‐240), whereas its variant HL‐60R was selected for MDR by exposure to gradually increasing concentrations of doxorubicin. MCF‐7 cells were obtained from ATCC® (HTB‐22). The nontumorigenic cell lines hTERT‐RPE‐1 (ATCC, CRL‐4010) and 1‐7HB2 (ECACC 10081201‐Cancer Research Technology) was kindly provided by Prof. Patrizia Cancemi and Prof. Giulio Ghersi (STEBICEF Department, University of Palermo, Italy), respectively. Cells were cultured in a humidified atmosphere at 37°C in 5% CO2. After obtaining the cells, the first passage carried out was assigned passage number 1. Cells with a narrow range of passage number […] were routinely tested for Mycoplasma contamination and were used for all experiments. HL‐60 and HL‐60R cells were cultured in Roswell Park Memorial Institute (RPMI) 1640, while MCF‐7, hTERT‐RPE‐1, and 1‐7HB‐2 cells were cultured in Dulbecco's Modified Eagle Medium (DMEM) (HyClone Europe Ltd.) low glucose, in particular only for 1‐7HB‐2 cells supplemented with hydrocortisone (5 μg/ml) and insulin (10 μg/ml). All media were supplemented with 10% heat‐inactivated fetal calf serum, 2 mM L‐glutamine, 100 U/ml penicillin, and 100 μg/ml streptomycin (all reagents were from EuroClone S.p.A.; GE Healthcare Life Sciences).
(§2) Cells were seeded at 5 × 10^3 cells/well onto 96 well plates and incubated overnight at 37°C. At time 0, the medium was replaced with fresh complete medium supplemented with the [1,2]oxazolo[5,4‐e]isoindoles at large concentrations range. Following 72 h of treatment, 15 µl commercial solution obtained from Promega Corp. containing 3‐(4,5‐dimethylthiazol‐2‐yl)−5‐(3‐carboxymethoxyphenyl)−2‐(4‐sulphophenyl)−2H‐tetrazolium (MTS) and phenazine ethosulfate was added. The plates were incubated in a humidified atmosphere at 37°C in 5% CO2 for 2 h, and the bioreduction of MTS dye was evaluated by measuring the absorbance of each well at 490 nm using a microplate absorbance reader (iMark Microplate Reader; Bio‐Rad Laboratories, Inc.). Cell growth inhibition was expressed as a percentage of the absorbance of the control cells. Data were expressed as mean ± standard error (SE) of at least three different experiments performed in triplicate.

hTERT‐RPE‐1 cells = assay: Cell growth assay (MTS), non-tumorigenic hTERT-RPE-1 cells; assay type: cell-based; details: the maximum concentration used in the MTS assay is reported, read-out: h‐TERT‐RPE‐1 (IC50)
Description: as §1, §2

1‐7HB2 cells = assay: Cell growth assay (MTS), non-tumorigenic 1-7HB2 cells; assay type: cell-based; details: 72 h, the maximum concentration used in the MTS assay is reported
Description: as §1, §2

HL‐60R cells [1] = assay: Viable cell count with Trypan blue exclusion test (cotreatments); assay type: cell-based; details: for synergistic / potentiation effect with the reference drugs (VIN or PTX): cotreatment at sub-cytotoxic concentrations
Description: Potentiation or synergism due to cotreatments were evaluated by viable cell count with Trypan blue exclusion test. Data were expressed as mean ± SE of at least three different experiments performed in duplicate.

HL‐60 cells = assay: Cell growth assay (MTS), HL-60 cells; assay type: cell-based; details: mean ± SE
Description: as §1, §2

HL‐60R cells [2] = assay: Cell growth assay (MTS), HL-60R MDR variant; assay type: cell-based; details: 72 h of treatment, mean ± SE
Description: as §1, §2

HL‐60R cell line = assay: Intracellular accumulation of doxorubicin (flow cytometry); assay type: cell-based
Description: The effects of 4e and 4k on intracellular accumulation of doxorubicin were evaluated in the HL‐60R cell line. […] After 24 h of incubation doxorubicin 2 µM was added for 1 h. The cells were subsequently washed with PBS twice and then resuspended in a final volume of 400 µl of PBS. The fluorescence intensity of doxorubicin was measured by flow cytometry using a FACSAria III instrument (Becton Dickinson).

HL‐60R cells [3] = assay: Cell death by flow cytometry (propidium iodide, preG0-G1 events); assay type: cell-based
Description: Cells were collected and washed twice with ice‐cold PBS and then resuspended in a hypotonic fluorochrome solution containing propidium iodide (PI) 50 µg/ml in 0.1% sodium citrate plus 0.03% (v/v) Nonidet P‐40, at 1 × 10^6/ml. After incubation (at least 1 h at 4°C) in this solution, the samples were filtered through nylon cloth, 40 µm mesh, and their fluorescence was analyzed using a FACSCanto instrument (Becton Dickinson). The data were analyzed with BD FACSDiva software v.6.1.2. (Becton Dickinson). Cell death was determined by evaluating the percentage of events accumulated in the preG0‐G1 position.

tubulin in HL‐60 cells = assay: Tubulin polymerization assay (soluble/polymerized fraction, western blot), HL-60; assay type: cell-based; details: HL-60, 24 h at the IC50 at 72 h
Description: (§3) To separate cytosolic and cytoskeletal‐associated proteins, cells were rinsed in PEM buffer (0.1 M PIPES, pH 6.94; 2 mM EGTA; 1 mM MgCl2; 10% glycerol; 1 µM protease inhibitors cocktail; 0.5% Nonidet NP‐40), lysed at room temperature for 10 min with the same buffer (200 µl). After centrifugation (14,000 rpm at 4°C for 10 min), the soluble fraction (supernatant) was separated from polymerized fraction (pellet); the latter was resuspended in the same buffer (200 µl).
(§4) Both the fractions were then diluted 3:1 with 4 × SDS‐PAGE sample buffer. Proteins were separated by SDS‐PAGE, and tubulin distribution was analyzed by immunoblotting using anti‐α‐tubulin antibody (Sigma‐Aldrich). Hybridization was visualized using an enhanced chemiluminescence detection kit (SuperSignal West Femto Maximum Sensitivity Substrate, Thermo Scientific Life Technologies Italia) and the Versa DOC imaging system (BioRad Laboratories).

tubulin in HL‐60R cells = assay: Tubulin polymerization assay (soluble/polymerized fraction, western blot), HL-60R; assay type: cell-based; details: 24 h at the IC50 at 72 h
Description: as §3, §4

[4] = target: T1, recombinant human P‐gp membranes (Homo sapiens, UniProt P08183); assay: P-gp ATPase activity (Pgp-Glo assay); assay type: biochemical; details: compound at its IC50; verapamil 0.5 mM
T1 construct: purchased Promega
T1 sequence (P08183 whole entry): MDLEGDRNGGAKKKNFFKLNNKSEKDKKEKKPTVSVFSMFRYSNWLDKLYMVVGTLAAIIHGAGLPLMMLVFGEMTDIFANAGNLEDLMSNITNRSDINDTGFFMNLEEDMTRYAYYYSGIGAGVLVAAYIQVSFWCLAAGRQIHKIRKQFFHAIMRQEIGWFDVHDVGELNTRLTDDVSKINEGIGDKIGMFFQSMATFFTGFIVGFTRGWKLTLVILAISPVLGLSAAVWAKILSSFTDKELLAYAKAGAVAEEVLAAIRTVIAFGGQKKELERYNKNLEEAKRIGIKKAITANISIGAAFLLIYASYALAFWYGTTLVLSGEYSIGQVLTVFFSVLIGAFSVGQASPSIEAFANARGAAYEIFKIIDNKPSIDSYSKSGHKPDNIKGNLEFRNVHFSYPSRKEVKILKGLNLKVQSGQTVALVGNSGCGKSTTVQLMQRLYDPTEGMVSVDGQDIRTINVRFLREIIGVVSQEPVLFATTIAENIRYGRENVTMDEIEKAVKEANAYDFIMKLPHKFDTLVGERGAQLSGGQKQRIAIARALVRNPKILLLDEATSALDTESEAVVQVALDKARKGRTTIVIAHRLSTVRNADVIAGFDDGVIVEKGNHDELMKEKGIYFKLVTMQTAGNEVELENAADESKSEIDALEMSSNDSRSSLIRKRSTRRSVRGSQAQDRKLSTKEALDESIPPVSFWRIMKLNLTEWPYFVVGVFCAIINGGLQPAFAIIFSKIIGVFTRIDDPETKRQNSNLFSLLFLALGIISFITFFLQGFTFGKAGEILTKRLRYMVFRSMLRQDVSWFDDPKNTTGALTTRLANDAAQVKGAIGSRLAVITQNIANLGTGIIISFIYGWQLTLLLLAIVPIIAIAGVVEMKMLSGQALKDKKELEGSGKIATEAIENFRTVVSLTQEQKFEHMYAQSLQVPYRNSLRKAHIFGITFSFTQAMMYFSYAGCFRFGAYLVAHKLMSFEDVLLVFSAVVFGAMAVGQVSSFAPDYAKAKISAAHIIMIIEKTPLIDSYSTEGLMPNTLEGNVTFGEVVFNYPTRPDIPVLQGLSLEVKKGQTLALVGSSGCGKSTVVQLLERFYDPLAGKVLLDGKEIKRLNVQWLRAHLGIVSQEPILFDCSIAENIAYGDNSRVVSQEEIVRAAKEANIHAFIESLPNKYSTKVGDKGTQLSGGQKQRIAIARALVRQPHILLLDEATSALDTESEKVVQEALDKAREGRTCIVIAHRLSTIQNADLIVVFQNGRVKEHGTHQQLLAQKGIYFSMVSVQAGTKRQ
Description: P‐gp ATPase activity was performed with Pgp‐Glo™ Assay Systems (Promega) following manufacturer's instructions. The compounds 4e and 4k, at their IC50s (test compound [TC]) were added to a 96‐well white plate in duplicate and incubated with recombinant human P‐gp membranes. The compound Na3VO4 (0.25 mM) was used as the selective inhibitor of P‐gp ATPase activity while negative control (no treatment [NT]) with only Pgp‐GLO assay buffer was used to provide a measure of unregulated ATPase activity. Verapamil (0.5 mM) is a P‐gp substrate that stimulates P‐gp ATPase activity and represents the positive control for drug stimulation of P‐gp ATPase activity. In fact, it is not a pure inhibitor of P‐gp function as well as Na3VO4, but in association with another P‐gp substrate like doxorubicin, it behaves as a competitive antagonist, that is, an efflux inhibitor. […]
Luminescence was measured using a GLOMAX Multidetection System (Promega). The data were presented as change in luminescence (ΔRLU), calculated as follows: ΔRLUbasal is the difference between the average luminescent signals from Na3VO4‐treated samples (RLUNa3VO4) and untreated (NT) samples (RLUNT), ΔRLUTC that reflects P‐gp ATPase activity in the presence of the test compounds, is the difference between the average luminescent signals from Na3VO4‐treated samples (RLUNa3VO4) and test compound‐treated samples (RLUTC).

[5] = test system: XIAP, IAP‐1, Bcl‐2 in HL‐60R cells; assay: Western blot of antiapoptotic factors (survivin, XIAP, IAP-1, Bcl-2); assay type: cell-based; details: co-treatment of 4k and PTX
Description: Whole‐cell lysates were obtained from HL‐60R cells using RIPA buffer (Santa Cruz Biotechnology Inc.) and 25 µg protein was subjected to 10% SDS‐PAGE and transferred to nitrocellulose membrane (Amersham, Pharmacia Biotech) using a semi‐dry fast blot apparatus (Bio‐Rad). Membranes were blocked with 5% (w/v) BSA in PBS‐0.1% (v/v) Tween 20 for 1 h and then filters were incubated with primary antibodies raised against GAPDH (1:20,000; Sigma‐Aldrich Srl Milan), XIAP (1:500; Cell Signaling Technology, Inc), survivin (1:2000; Abcam Limited), Bcl‐2 (1:1000; Santa Cruz Biotechnology Inc.) and IAP‐1 (1:1000; Cell Signaling Technology, Inc). Hybridization was visualized using an enhanced chemiluminescence detection kit (SuperSignal West Femto Maximum Sensitivity Substrate, Thermo Scientific Life Technologies Italia) and the Versa DOC imaging system (BioRad Laboratories). Immunoblots were quantified by densitometry measurements after normalization with glyceraldehyde‐3‐phosphate dehydrogenase and results were expressed as fold changes.

[6] = Homo sapiens, HL-60, 72 h of treatment

| SMILES | IC50 (MCF‐7 cells; 72 h) | IC50 (hTERT‐RPE‐1 cells; 72 h) | IC50 (1‐7HB2 cells) | synergistic / potentiation effect with the reference drugs (VIN or PTX) (HL‐60R cells [1]) | IC50 (HL‐60 cells; [6]) | IC50 (HL‐60R cells [2]; HL60R) | IC50 (HL‐60 cells; 72 h of treatment) | IC50 (HL‐60R cells [2]) | further results |
| --- | --- | --- | --- | --- | --- | --- | --- | --- | --- |
| COc1cccc(Cn2cc3c(c2)-c2oncc2CC3)c1 [4c] | > 50000 nM | > 5000 nM | > 5000 nM | synergistic effect |  |  |  |  | Cell growth inhibition (%) (HL‐60R cells [1]; 48 h, alone at 0.2 µM): 42.5 ± 0.3% |
| CC[C@]1(O)C[C@@H]2CN(CCc3c([nH]c4ccccc34)[C@@](C(=O)OC)(c3cc4c(cc3OC)N(C)[C@H]3[C@@](O)(C(=O)OC)[C@H](OC(C)=O)[C@]5(CC)C=CCN6CC[C@]43[C@@H]65)C2)C1 [Vinblastine, reference compound] |  |  |  |  | 50 nM | 820 ± 20 nM |  |  | inhibition at 0.3 µM (HL‐60R cells [1]; HL60R, 48 h, alone at 0.3 µM, read-out: Cell growth inhibition (%)): 0% |
| COc1cccc2c1C(=O)c1c(O)c3c(c(O)c1C2=O)C[C@@](O)(C(=O)CO)C[C@@H]3O[C@H]1C[C@H](N)[C@H](O)[C@H](C)O1 [Doxorubicin, doxorubicin, reference compound] |  |  |  |  |  |  |  |  | Fluorescence (%) HL‐60R (HL‐60R cell line; Doxo 2 µM 1 h alone): 4.4%; Fluorescence (%) HL‐60R (HL‐60R cell line; Doxo 2 µM 1 h alone, listed as Doxo): 4.4 ± 0.3% |
| c1ccc(Cn2cc3c(c2)-c2oncc2CC3)cc1 [4a] | > 50000 nM | > 20000 nM | > 20000 nM | synergistic effect |  |  | 1900 ± 900 nM | 2100 ± 200 nM | Cell growth inhibition (%) (HL‐60R cells [1]; 48 h, alone at 1 µM): 2.5 ± 1.8% |
| CC(=O)O[C@H]1C(=O)[C@@]2(C)[C@H]([C@H](OC(=O)c3ccccc3)[C@]3(O)C[C@H](OC(=O)[C@H](O)[C@@H](NC(=O)c4ccccc4)c4ccccc4)C(C)=C1C3(C)C)[C@]1(OC(C)=O)CO[C@@H]1C[C@@H]2O [Paclitaxel, reference compound] |  |  |  |  | 20 ± 40 nM | 1300 ± 140 nM |  |  | inhibition at 1 µM (HL‐60R cells [1]; HL60R, 48 h, alone at 1 µM, read-out: Cell growth inhibition (%)): 13 ± 9.2%; Percentage of events accumulated in the pre G0‐G1 position (cell death) (HL‐60R cells [3]; 48 h, 1 µM): 7.6%; effect on soluble / polymerized tubulin fraction (tubulin in HL‐60 cells): marked increase in the polymerized fraction; effect on soluble / polymerized tubulin fraction (tubulin in HL‐60R cells): marked increase in the polymerized fraction |
| COc1cc(Cn2cc3c(c2)-c2oncc2CC3)cc(OC)c1OC [4e] | > 5000 nM | > 100 nM | > 100 nM | not detected any potentiation |  |  |  |  | Fluorescence (%) HL‐60R (HL‐60R cell line; 0.04 µM for 24 h, without doxorubicin): 0.2 ± 0.07%; Fluorescence (%) HL‐60R (intracellular accumulation of doxorubicin) (HL‐60R cell line; pretreated 0.04 µM for 24 h + Doxo 2 µM 1 h): 8.8 ± 0.3 % |
| COc1ccc(Cn2cc3c(c2-c2cc(OC)c(OC)c(OC)c2)CCc2cnoc2-3)cc1OC [4k, 7‐(3,4‐dimethoxybenzyl)−6‐(3,4,5‐trimethoxyphenyl)−5,7‐dihydro‐4H‐[1,2]oxazolo[5,4‐e]isoindole] |  |  | > 20000 nM | synergistic effect | 3000 ± 250 nM | 5500 ± 1400 nM |  |  | IC50 (MCF‐7 cells; Homo sapiens, MCF7, 72 h): > 50000 nM; IC50 (hTERT‐RPE‐1 cells; hTERT-RPE1, 72 h): > 20000 nM; synergistic effect in induction of cell death (HL‐60R cells [3]; HL-60R, in combination with PTX and VIN): strong synergistic effect; Fluorescence (%) HL‐60R (HL‐60R cell line; 5.50 µM for 24 h, without doxorubicin): 0.3 ± 0.1%; Fluorescence (%) HL‐60R (intracellular accumulation of doxorubicin) (HL‐60R cell line; pretreated 5.50 µM for 24 h + Doxo 2 µM 1 h): 22.5 ± 1.1 %; effect on verapamil‐stimulated P‐gp ATPase activity [4]: significative increase; effect on soluble / polymerized tubulin fraction (tubulin in HL‐60 cells): increasing the soluble fraction of tubulin; effect on soluble / polymerized tubulin fraction (tubulin in HL‐60R cells): increasing the soluble fraction of tubulin; protein expression of antiapoptotic factors XIAP, IAP‐1 and Bcl‐2 [5]: substantial protein expression decrease |
| COc1ccccc1Cn1cc2c(c1)-c1oncc1CC2 [4b] | > 50000 nM | > 20000 nM | > 20000 nM |  |  |  | 2100 ± 400 nM | 2400 ± 800 nM |  |
| COc1ccc(CCN(C)CCCC(C#N)(c2ccc(OC)c(OC)c2)C(C)C)cc1OC (stereo not drawn) [Verapamil, reference compound] |  |  |  |  |  |  |  |  | Fluorescence (%) HL‐60R (HL‐60R cell line; 10 µM for 24 h, without doxorubicin): 0.3 ± 0.1%; Fluorescence (%) HL‐60R (intracellular accumulation of doxorubicin) (HL‐60R cell line; pretreated 10 µM for 24 h + Doxo 2 µM 1 h): 58.5 ± 2.5 % |
| COc1ccc(Cn2cc3c(c2)-c2oncc2CC3)cc1OC [4d] | > 50000 nM | > 5000 nM | > 5000 nM |  |  |  | 600 ± 10 nM | 700 ± 90 nM |  |
